# Data published in patent US11084809B2, “N-((HET)arylmethyl)-heteroaryl-carboxamides compounds as kallikrein inhibitors” (KALVISTA PHARMACEUTICALS LIMITED, priority 2014, dated 2021).
# Key:
# Assay type in all cases: biochemical
# [1] = target: Human XIa (Homo sapiens (Human), UniProt P03951); assay: Determination of the % inhibition for XIa; settings: 40 μM test compound, 25° C.
# Description: Determination of the % Inhibition for XIa
# Human XIa (Enzyme Research Laboratories) was incubated at 25° C. with the fluorogenic substrate Z-Gly-Pro-Arg-AFC and 40 μM of the test compound. Residual enzyme activity (initial rate of reaction) was determined by measuring the change in optical absorbance at 410 nm.
# [2] = target: Human plasma kallikrein (Homo sapiens (Human), UniProt P03952); assay: Determination of the IC50 for plasma kallikrein; settings: read-out: IC50 (human PKal)
# Description: Determination of the IC50 for plasma kallikrein
# (§1) Human plasma kallikrein (Protogen) was incubated at 25° C. with the fluorogenic substrate H-DPro-Phe-Arg-AFC and various concentrations of the test compound. Residual enzyme activity (initial rate of reaction) was determined by measuring the change in […] at 410 nm and the IC50 value for the test compound was determined.
# [3] = target: Human KLK1 (Homo sapiens (Human), UniProt P06870); assay: Determination of the IC50 for KLK1; settings: human KLK1, 25° C., substrate H-DVal-Leu-Arg-AFC
# Description: Determination of the IC50 for KLK1
# as §1, with “KLK1 (Callbiochem)” for “plasma kallikrein (Protogen)”, “H-DVal-Leu-Arg-AFC” for “H-DPro-Phe-Arg-AFC”
# Human XIa, sequence (P03951 388-625): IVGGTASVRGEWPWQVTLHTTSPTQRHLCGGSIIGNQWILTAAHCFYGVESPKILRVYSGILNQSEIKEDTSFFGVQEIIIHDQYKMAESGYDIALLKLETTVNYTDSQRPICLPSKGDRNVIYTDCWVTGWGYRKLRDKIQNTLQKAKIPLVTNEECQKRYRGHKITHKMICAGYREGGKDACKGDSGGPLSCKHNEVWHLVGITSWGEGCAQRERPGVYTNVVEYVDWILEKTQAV
# Human XIa, sequence (P03951 19-387 partner): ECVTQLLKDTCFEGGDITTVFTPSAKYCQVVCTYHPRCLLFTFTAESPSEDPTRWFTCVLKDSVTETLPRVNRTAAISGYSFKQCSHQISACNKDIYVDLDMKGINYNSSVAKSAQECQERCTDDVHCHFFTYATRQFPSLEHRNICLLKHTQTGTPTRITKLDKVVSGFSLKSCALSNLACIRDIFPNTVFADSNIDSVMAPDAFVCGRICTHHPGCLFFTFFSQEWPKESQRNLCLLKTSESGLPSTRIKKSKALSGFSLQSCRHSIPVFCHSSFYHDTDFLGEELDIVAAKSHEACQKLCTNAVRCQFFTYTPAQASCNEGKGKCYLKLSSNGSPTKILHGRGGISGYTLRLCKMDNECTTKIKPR
# Human KLK1, sequence (P06870 25-262): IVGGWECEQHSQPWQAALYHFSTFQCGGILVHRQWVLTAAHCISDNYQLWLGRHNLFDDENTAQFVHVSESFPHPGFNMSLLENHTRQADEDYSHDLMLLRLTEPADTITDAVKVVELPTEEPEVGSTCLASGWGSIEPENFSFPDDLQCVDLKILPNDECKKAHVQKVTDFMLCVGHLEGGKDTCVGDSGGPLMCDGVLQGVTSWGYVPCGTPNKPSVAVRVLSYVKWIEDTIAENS
# Human plasma kallikrein, sequence (P03952 391-638): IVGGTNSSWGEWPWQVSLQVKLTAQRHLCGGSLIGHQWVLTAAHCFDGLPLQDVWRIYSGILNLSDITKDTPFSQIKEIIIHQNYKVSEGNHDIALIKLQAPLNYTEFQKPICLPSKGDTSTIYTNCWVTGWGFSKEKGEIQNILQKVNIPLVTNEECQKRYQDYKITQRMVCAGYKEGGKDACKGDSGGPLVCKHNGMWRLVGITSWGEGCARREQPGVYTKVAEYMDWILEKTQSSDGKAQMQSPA
# Human plasma kallikrein, sequence (P03952 20-390 partner): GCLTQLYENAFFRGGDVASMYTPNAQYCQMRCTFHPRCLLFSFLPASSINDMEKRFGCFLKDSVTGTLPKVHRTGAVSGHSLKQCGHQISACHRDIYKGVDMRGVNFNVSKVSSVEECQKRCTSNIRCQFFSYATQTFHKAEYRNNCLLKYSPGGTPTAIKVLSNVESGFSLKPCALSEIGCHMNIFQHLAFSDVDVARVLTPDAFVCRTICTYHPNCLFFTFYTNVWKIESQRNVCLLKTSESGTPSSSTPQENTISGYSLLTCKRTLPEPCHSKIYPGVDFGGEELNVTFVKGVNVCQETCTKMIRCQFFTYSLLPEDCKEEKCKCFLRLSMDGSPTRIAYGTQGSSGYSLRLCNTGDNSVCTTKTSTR
Compound,% Inhibition @ 40 μM (human FXIa) [1] [%],IC50 [2] [nM],IC50 [3] [nM]
"COc1cccc(CNC(=O)c2cn(Cc3ccc(Cn4ccccc4=O)cc3)nc2C2CC2)c1F [Example 52, 3-cyclopropyl-N-[(2-fluoro-3-methoxyphenyl)methyl]-1-({4-[(2-oxopyridin-1-yl)methyl]phenyl}methyl)pyrazole-4-carboxamide]",1,,
"N-[(2,6-dimethylphenyl)methyl]-1-({4-[(4-methylpyrazol-1-yl)methyl]phenyl}methyl)-3-(trifluoromethyl)pyrazole-4-carboxamide [Example 25]",,1840,> 10000
"N-[(2,4-dimethylphenyl)methyl]-1-({4-[(4-methylpyrazol-1-yl)methyl]phenyl}methyl)-3-(trifluoromethyl)pyrazole-4-carboxamide [Example 24]",,717,> 10000

# Next, values leading:
% Inhibition @ 40 μM (human FXIa) [1] [%],IC50 [2] [nM],IC50 [3] [nM],Compound
0,,,"Nc1nn(Cc2ccc(Cn3ccccc3=O)cc2)cc1C(=O)NCc1ccc(OC(F)(F)F)cc1 [Example 58, 3-amino-1-({4-[(2-oxopyridin-1-yl)methyl]phenyl}methyl)-N-{[4-(trifluoromethoxy)phenyl]methyl}pyrazole-4-carboxamide]"
0,,> 10000,"CCOc1cccc(CNC(=O)c2cn(Cc3ccc(Cn4cc(C)cn4)cc3)nc2C(F)(F)F)c1 [Example 6, N-[(3-ethoxyphenyl)methyl]-1-({4-[(4-methylpyrazol-1-yl)methyl]phenyl}methyl)-3-(trifluoromethyl)pyrazole-4-carboxamide]"
0,,,"NC(=O)c1cccc(CNC(=O)c2cn(Cc3ccc(Cn4ccccc4=O)cc3)nc2C2CC2)c1 [Example 49, N-[(3-carbamoylphenyl)methyl]-3-cyclopropyl-1-({4-[(2-oxopyridin-1-yl)methyl]phenyl}methyl)pyrazole-4-carboxamide]"
